Results from ChEMBL document CHEMBL1127522, “[L-Ala3]DPDPE: a new enkephalin analog with a unique opioid receptor activity profile. Further evidence of delta-opioid receptor multiplicity” (J Med Chem, 1994).
Bridge positions count the residues as written; N and C are the ends. Square brackets hold non-standard residues; d marks the D form. Peptide text beside a SMILES is read from it. dPen = CC(C)(S)[C@@H](N)C(=O)O; dAbu = CC[C@@H](N)C(=O)O

How the values were obtained:
Mu-type opioid receptor = Mu-type opioid receptor (Rattus norvegicus, UniProt P33535); test: Evaluation for the binding affinity by competitive inhibition of [3H]- CTOP binding
[1] = molecular target: Delta-type opioid receptor (Rattus norvegicus, UniProt P33533); test: Evaluation for the binding affinity by competitive inhibition of [3H]- p-chloro DPDPE binding
[2] = molecular target: Delta-type opioid receptor (Mus musculus, UniProt P32300); test: Inhibitory activity of the electrically induced smooth muscle contraction of mouse vas deferens; assay type: functional, tissue-based
Sequence of Delta-type opioid receptor (Mus musculus, UniProt P32300) (P32300 whole entry): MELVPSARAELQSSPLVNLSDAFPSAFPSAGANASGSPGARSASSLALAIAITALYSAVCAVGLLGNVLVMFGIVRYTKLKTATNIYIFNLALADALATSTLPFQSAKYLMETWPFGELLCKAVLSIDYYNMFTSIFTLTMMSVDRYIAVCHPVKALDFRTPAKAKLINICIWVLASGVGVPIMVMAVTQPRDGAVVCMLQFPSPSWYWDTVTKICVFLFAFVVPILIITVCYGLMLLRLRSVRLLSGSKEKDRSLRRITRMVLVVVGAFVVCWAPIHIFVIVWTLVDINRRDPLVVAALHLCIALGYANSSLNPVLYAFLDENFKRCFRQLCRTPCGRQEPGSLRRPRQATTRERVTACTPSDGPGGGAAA

Sequence of Mu-type opioid receptor (P33535 whole entry): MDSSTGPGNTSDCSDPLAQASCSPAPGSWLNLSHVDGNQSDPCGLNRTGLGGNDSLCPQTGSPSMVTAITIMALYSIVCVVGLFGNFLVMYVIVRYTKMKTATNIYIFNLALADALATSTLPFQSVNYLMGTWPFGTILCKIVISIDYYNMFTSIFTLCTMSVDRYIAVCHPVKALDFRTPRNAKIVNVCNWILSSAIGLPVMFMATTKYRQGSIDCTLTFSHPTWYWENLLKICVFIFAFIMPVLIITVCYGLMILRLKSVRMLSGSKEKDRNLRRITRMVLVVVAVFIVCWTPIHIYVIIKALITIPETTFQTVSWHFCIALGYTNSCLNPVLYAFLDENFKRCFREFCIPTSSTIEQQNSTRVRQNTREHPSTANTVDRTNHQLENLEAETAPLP
Sequence of Delta-type opioid receptor (Rattus norvegicus, UniProt P33533) (P33533 whole entry): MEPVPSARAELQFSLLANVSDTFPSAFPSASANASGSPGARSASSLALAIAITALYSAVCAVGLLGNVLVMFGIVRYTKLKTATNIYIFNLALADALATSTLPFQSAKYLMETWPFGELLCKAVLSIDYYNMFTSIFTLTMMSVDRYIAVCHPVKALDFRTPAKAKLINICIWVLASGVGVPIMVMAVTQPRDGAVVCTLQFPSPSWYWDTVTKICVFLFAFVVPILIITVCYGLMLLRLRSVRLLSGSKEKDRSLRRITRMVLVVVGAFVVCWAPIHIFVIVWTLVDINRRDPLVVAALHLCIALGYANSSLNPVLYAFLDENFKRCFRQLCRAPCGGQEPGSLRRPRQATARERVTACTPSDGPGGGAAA

| SMILES | IC50 (Mu-type opioid receptor) | IC50 [1] | IC50 [2] |
| --- | --- | --- | --- |
| CC1(C)SSC(C)(C)[C@@H](NC(=O)[C@@H](N)Cc2ccc(O)cc2)C(=O)N[C@@H](CO)C(=O)N[C@@H](Cc2ccccc2)C(=O)N[C@H]1C(=O)O (H-Y[dPen]SF[dPen]-OH; disulfide 2-5) | > 22500 nM |  |  |
| CC[C@H]1NC(=O)[C@H](NC(=O)[C@@H](N)Cc2ccc(O)cc2)C(C)(C)SSC(C)(C)[C@H](C(=O)O)NC(=O)[C@H](Cc2ccccc2)NC1=O (H-Y[dPen][dAbu]F[dPen]-OH; disulfide 2-5) | > 50000 nM | 2500 nM |  |
| CC1(C)SSC(C)(C)[C@@H](NC(=O)[C@@H](N)Cc2ccc(O)cc2)C(=O)N[C@H](CO)C(=O)N[C@@H](Cc2ccccc2)C(=O)N[C@H]1C(=O)O (H-Y[dPen][dS]F[dPen]-OH; disulfide 2-5) | > 50000 nM |  | 1300 nM |
